{"source": "patent US20180332881A1", "about": "“PRETERM INFANT FORMULA […] AND USES THEREOF” (Mead Johnson Nutrition Company, priority 2017, published 2018)", "test_system": "oligodendrocyte precursor cells (OPCs)", "test": "Differentiation of purified oligodendrocyte precursor cells (OPCs) into mature oligodendric cells (MBP / PDGFRα immunostaining)", "format": "cell-based, rat", "conditions": "48 hours", "method": "The OPCs were purified from P7 rat brain cortices. Rodent brain cortices were diced and dissociated with papain at 37° C. After trituration, […] were resuspended in a panning buffer and incubated at room temperature sequentially on the three immunopanning dishes: Ran-2 and GalC were used for negative selection before positive selection with 04. OPCs were released from the panning dish using 0.05% Trypsin. OPCs were seeded onto PPL-coated coverslips at 200,000 per 25 mm circle coverslip in a chemically defined culture medium with PDGFa overnight.\nSodium Butyrate (NaB) was dissolved in sterile water and added into culture medium the next day to reach desire concentration. OPC coverslips were placed into 6-well dishes, 1 ml of NaB-containing culture medium without PDGFα was added to each well. Cells were cultured for 48 hours before fixation and immunostaining. PDGFRα antibody identifies OPCs and MBP (myelin basic protein) antibody labels differentiated oligodendrocytes. Percentage of MBP-positive cells out of all PDGFRα- and MBP-positives cells were quantified.\nExamining a dose response for sodium butyrate on purified oligodendroglial cultures. Sodium butyrate was added to purified oligodendroglial cultures and cells were analyzed after 48 hours of treatment for effects on survival, proliferation and differentiation. Oligodendrocyte precursor cells were immunostained with PDGFRα shown in green, oligodendrocytes were immunostained with MBP in red, cell nuclei were labeled with DAPI in blue. Percentage of MBP-positive oligodendrocytes among all oligodendroglial cells was quantified at various concentrations of sodium butyrate. The asterisks represent significance based on Students t-test with the respective controls (*p<0.05, **p<0.01)"}
{"smiles": "CCCC(=O)[O-].[Na+]", "note": "[sodium butyrate, Sodium Butyrate]", "values": [{"measurement": "effect to promote OPC to differentiate into mature oligodendric cells (dose response)", "setting": "50 nM to 250 μM", "result": "dose-dependent manner"}, {"measurement": "number of oligodendric cells from OPC compared to the control (MBP immunohistochemistry, FIG. 7)", "setting": "250 μM sodium butyrate", "result": "statistically significant increase"}, {"measurement": "fold increase in the numbers of differentiated and matured oligodendric cells as compared to the control", "setting": "250 μM sodium butyrate, OPCs from P7 rat brain cortices", "result": 2.6, "unit": "fold"}, {"measurement": "increase in Oligo cells (percentage of MBP-positive cells) as compared to the control", "setting": "each of the concentrations tested (50 nM, 500 nM, 5 μM, 50 μM, 250 μM)", "result": "statistically significant increase"}]}
